Patent US20090069370A1, “AZACYCLYLISOQUINOLINONE AND ISOINDOLINONE DERIVATIVES AS HISTAMINE-3 ANTAGONISTS” (Wyeth, priority 2007, published 2009)
Counter-ions that a name gives are not always drawn.

melting point	SMILES
> 205 °C	CCNC(=O)c1ccc(-c2ccc3c(c2)CCN([C@@H]2CCN(C4CCC4)C2)C3=O)c(F)c1 (as salt: hydrochloride) [Example 77, 4-{2-[(3R)-1-cyclobutylpyrrolidin-3-yl]-1-oxo-1,2,3,4-tetrahydroisoquinolin-6-yl}-N-ethyl-3-fluorobenzamide]
> 275 °C	CNC(=O)c1ccc(-c2ccc3c(c2)CCN([C@@H]2CCN(C(C)C)C2)C3=O)cc1 (as salt: hydrochloride) [Example 82]
> 250 °C	O=C(c1ccc(-c2ccc3c(c2)CCN([C@@H]2CCCN(C4CCCC4)C2)C3=O)cc1)N1CCCC1 (as salt: hydrochloride) [Example 71, 2-[(3R)-1-cyclopentylpiperidin-3-yl]-6-[4-(pyrrolidin-1-ylcarbonyl)phenyl]-3,4-dihydroisoquinolin-1(2H)-one]
249 to 250 °C	O=C(c1ccc(-c2ccc3c(c2)CCN([C@@H]2CCN(Cc4cccs4)C2)C3=O)cc1)N1CCCC1 (as salt: hydrochloride) [Example 62, 6-[4-(pyrrolidin-1-ylcarbonyl)phenyl]-2-[(3R)-1-(thiophen-2-ylmethyl)pyrrolidin-3-yl]-3,4-dihydroisoquinolin-1(2H)-one]
220 to 221 °C	O=C(c1ccc(-c2ccc3c(c2)CN([C@@H]2CCN(C4CCC4)C2)C3=O)cc1)N1CCCC1 (as salt: hydrochloride) [Example 92, (R)-2-(1-cyclobutylpyrrolidin-3-yl)-5-(4-(pyrrolidine-1-carbonyl)-phenyl)isoindolin-1-one hydrochloride]
197 to 198 °C	O=C(c1ccc(-c2ccc3c(c2)CCN(C2CCN(Cc4ccccc4)CC2)C3=O)cc1)N1CCCC1 [Example 63, 2-(1-benzylpiperidin-4-yl)-6-(4-(pyrrolidine-1-carbonyl)phenyl)-3,4-dihydroisoquinolin-1(2H)-one]
> 255 °C	CCNC(=O)c1ccc(-c2ccc3c(c2)CCN([C@@H]2CCN(C(C)C)C2)C3=O)c(F)c1 (as salt: hydrochloride) [Example 86, N-ethyl-3-fluoro-4-{2-[(3R)-1-isopropylpyrrolidin-3-yl]-1-oxo-1,2,3,4-tetrahydroisoquinolin-6-yl}benzamide]
239 to 241 °C	C[C@@H]1CCCN1C(=O)c1ccc(-c2ccc3c(c2)CCN([C@@H]2CCN(C4CCC4)C2)C3=O)c(F)c1 (as salt: hydrochloride) [Example 76, 2-[(3R)-1-cyclobutylpyrrolidin-3-yl]-6-(2-fluoro-4-{[(2R)-2-methylpyrrolidin-1-yl]carbonyl}phenyl)-3,4-dihydroisoquinolin-1(2H)-one]
> 270 °C	CCNC(=O)c1ccc(-c2ccc3c(c2)CCN([C@@H]2CCN(C(C)C)C2)C3=O)cc1 (as salt: hydrochloride) [Example 83, N-ethyl-4-{2-[(3R)-1-isopropylpyrrolidin-3-yl]-1-oxo-1,2,3,4-tetrahydroisoquinolin-6-yl}benzamide]

The next lines start with the compound.

SMILES	melting point
CCNC(=O)c1ccc(-c2ccc3c(c2)CCN([C@@H]2CCN(C4CCCC4)C2)C3=O)cc1 (as salt: hydrochloride) [Example 42, 4-{2-[(3R)-1-cyclopentylpyrrolidin-3-yl]-1-oxo-1,2,3,4-tetrahydroisoquinolin-6-yl}-N-ethylbenzamide]	> 200 °C
CC(C)N1CC[C@@H](N2CCc3cc(-c4ccc(C(=O)N5CCCC5)cc4)ccc3C2=O)C1 (as salt: hydrochloride) [Example 56, 2-[(3R)-1-(1-methylethyl)pyrrolidin-3-yl]-6-[4-(pyrrolidin-1-ylcarbonyl)phenyl]-3,4-dihydroisoquinolin-1(2H)-one]	220 to 222 °C
N#Cc1ccc(-c2ccc3c(c2)CN(C2CCN(C4CCCCC4)CC2)C3=O)cc1 (as salt: hydrochloride) [Example 30, 4-[2-(1-Cyclohexylpiperidin-4-yl)-1-oxo-2,3-dihydro-1H-isoindol-5-yl]benzonitrile]	> 300 °C
O=C(NC1CCCC1)c1ccc(Oc2ccc3c(c2)CCN(C2CCN(C4CCC4)CC2)C3=O)cc1 (as salt: hydrochloride) [Example 9, 4-{[2-(1-Cyclobutylpiperidin-4-yl)-1-oxo-1,2,3,4-tetrahydroisoquinolin-6-yl]oxy}-N-cyclopentylbenzamide]	> 300 °C
O=C1c2ccc(-c3ccc(F)cc3)cc2CCN1[C@@H]1CCN(C2CCC2)C1 (as salt: hydrochloride) [Example 51, 2-[(3R)-1-cyclobutylpyrrolidin-3-yl]-6-(4-fluorophenyl)-3,4-dihydroisoquinolin-1(2H)-one]	231 to 233 °C
N#Cc1ccc(-c2ccc3c(c2)CN(C2CCN(C4CCCC4)CC2)C3=O)cc1 (as salt: hydrochloride) [Example 29, 4-[2-(1-Cyclopentylpiperidin-4-yl)-1-oxo-2,3-dihydro-1H-isoindol-5-yl]benzonitrile]	270 °C (dec.)
N#Cc1ccc(-c2ccc3c(c2)CN(C2CCN(CC4CC4)CC2)C3=O)cc1 (as salt: hydrochloride) [Example 26, 4-{2-[1-(Cyclopropylmethyl)piperidin-4-yl]-1-oxo-2,3-dihydro-1H-isoindol-5-yl}benzonitrile]	309 to 310 °C
CNC(=O)c1ccc(Oc2ccc3c(c2)CCN([C@@H]2CCN(C4CCCC4)C2)C3=O)cc1 (as salt: hydrochloride) [Example 37, 4-({2-[(3R)-1-cyclopentylpyrrolidin-3-yl]-1-oxo-1,2,3,4-tetrahydroisoquinolin-6-yl}oxy)-N-methylbenzamide]	223 to 224 °C
O=C(c1ccc(-c2ccc3c(c2)CCN([C@@H]2CCN(C4CCC4)C2)C3=O)cc1)N1CCCC1 (as salt: hydrochloride) [Example 47, 2-[(3R)-1-cyclobutylpyrrolidin-3-yl]-6-[4-(pyrrolidin-1-ylcarbonyl)phenyl]-3,4-dihydroisoquinolin-1(2H)-one]	215 to 217 °C
CN(C)C(=O)c1ccc(COc2ccc3c(c2)CCN(C2CCN(C4CCC4)CC2)C3=O)cc1 (as salt: hydrochloride) [Example 18, 4-({[2-(1-Cyclobutylpiperidin-4-yl)-1-oxo-1,2,3,4-tetrahydroisoquinolin-6-yl]oxy}methyl)-N,N-dimethylbenzamide]	292 to 294 °C
CCNC(=O)c1ccc(-c2ccc3c(c2)CCN([C@@H]2CCN(C4CCC4)C2)C3=O)cc1 (as salt: hydrochloride) [Example 45, 4-{2-[(3R)-1-cyclobutylpyrrolidin-3-yl]-1-oxo-1,2,3,4-tetrahydroisoquinolin-6-yl}-N-ethylbenzamide]	268 to 272 °C
CCNC(=O)c1ccc(Oc2ccc3c(c2)CCN([C@@H]2CCN(C4CCC4)C2)C3=O)cc1 (as salt: hydrochloride) [Example 34, 4-({2-[(3R)-1-cyclobutylpyrrolidin-3-yl]-1-oxo-1,2,3,4-tetrahydroisoquinolin-6-yl}oxy)-N-ethylbenzamide]	153 to 154 °C
O=C(c1ccc(-c2ccc3c(c2)CCN([C@@H]2CCN(CC4CC4)C2)C3=O)cc1)N1CCCC1 (as salt: hydrochloride) [Example 58, 2-[(3R)-1-(cyclopropylmethyl)pyrrolidin-3-yl]-6-[4-(pyrrolidin-1-ylcarbonyl)phenyl]-3,4-dihydroisoquinolin-1(2H)-one]	287 to 288 °C
CCCN1CCC(N2Cc3cc(-c4ccc(C#N)cc4)ccc3C2=O)CC1 (as salt: hydrochloride) [Example 25, 4-[1-Oxo-2-(1-propylpiperidin-4-yl)-2,3-dihydro-1H-isoindol-5-yl]benzonitrile]	300 to 302 °C
CCN(CC)C(=O)c1ccc(Oc2ccc3c(c2)CCN(C2CCN(C4CCC4)CC2)C3=O)cc1 (as salt: hydrochloride) [Example 11, 4-{[2-(1-Cyclobutylpiperidin-4-yl)-1-oxo-1,2,3,4-tetrahydroisoquinolin-6-yl]oxy}-N,N-diethylbenzamide]	249 to 251 °C
O=C(c1ccc(Oc2ccc3c(c2)CCN(C2CCN(C4CCC4)CC2)C3=O)cc1)N1CCCC1 (as salt: hydrochloride) [Example 12, 2-(1-Cyclobutylpiperidin-4-yl)-6-[4-(pyrrolidin-1-ylcarbonyl)phenoxy]-3,4-dihydroisoquinolin-1(2H)-one]	253 to 255 °C
